From patent US20250017914A1, “6-AZA-QUINOLINE DERIVATIVES AND RELATED USES” (Black Diamond Therapeutics, Inc., priority 2021, published 2025)

Molecular target: T1, BaF3 BRAF-KIAA1549 fusion cells (Homo sapiens, UniProt P15056)
T1 construct: The BRAF-KIAA1549 fusion mutant was subcloned into pMXs-IRES-Blasticidin (RTV-016, Cell Biolabs, San Diego, CA); No tag given; Q9HCM3 (UPF0606 protein KIAA1549)
Assay: BaF3 BRAF-KIAA1549 fusion cell proliferation assay (CellTiterGlo, 96 hours)
Assay type: cell-based
Summary of the method: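 BaF3 cells retrovirally transduced with BRAF-KIAA1549 fusion and blasticidin-selected were plated at 7×10^4 c/well in RPMI, 10% heat-inactivated FBS, 1% L-glutamine, and exposed to compound for 96 hours. Growth was read as ATP content by CellTiterGlo luminescence. IC50 was fitted by Levenberg-Marquardt, normalised to DMSO-treated cells.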

T1 sequence (P15056 whole entry, change not shown, the tested form may be a part): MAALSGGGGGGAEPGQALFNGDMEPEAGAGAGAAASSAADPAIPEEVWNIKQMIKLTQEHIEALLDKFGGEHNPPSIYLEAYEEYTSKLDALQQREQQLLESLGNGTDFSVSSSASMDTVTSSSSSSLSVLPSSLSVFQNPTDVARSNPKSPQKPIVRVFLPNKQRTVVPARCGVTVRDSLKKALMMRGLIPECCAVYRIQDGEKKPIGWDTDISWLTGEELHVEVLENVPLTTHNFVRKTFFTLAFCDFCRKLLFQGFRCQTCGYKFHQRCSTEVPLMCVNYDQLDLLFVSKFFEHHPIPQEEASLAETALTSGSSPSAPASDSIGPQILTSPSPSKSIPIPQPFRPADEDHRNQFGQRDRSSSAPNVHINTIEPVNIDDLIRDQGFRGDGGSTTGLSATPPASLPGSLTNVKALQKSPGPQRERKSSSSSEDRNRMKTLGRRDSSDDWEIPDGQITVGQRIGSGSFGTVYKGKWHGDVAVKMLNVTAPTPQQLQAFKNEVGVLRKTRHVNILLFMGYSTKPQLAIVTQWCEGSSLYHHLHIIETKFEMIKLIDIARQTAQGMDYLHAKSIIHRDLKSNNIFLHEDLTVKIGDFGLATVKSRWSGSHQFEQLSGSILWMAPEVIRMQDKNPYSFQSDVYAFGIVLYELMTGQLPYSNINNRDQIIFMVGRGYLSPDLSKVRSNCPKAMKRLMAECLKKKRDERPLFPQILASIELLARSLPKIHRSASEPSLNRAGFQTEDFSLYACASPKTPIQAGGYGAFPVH

For `CNCC(F)(F)c1cccc(C(=O)Nc2cnc(C)c(-c3cnc4cc(NC)ncc4c3)c2)n1` [Compound 250, 6-(1,1-difluoro-2-(methylamino)ethyl)-N-(6-methyl-5-(7-(methylamino)-1,6-naphthyridin-3-yl)pyridin-3-yl)picolinamide], the GI50 (Table A2) was ≥ 500 nM.

`CNc1cc2ncc(-c3cc(NC(=O)c4cc(C(F)(F)F)c(F)cn4)cnc3C)cc2cn1` [Compound 60, 5-Fluoro-N-(6-methyl-5-(7-(methylamino)-1,6-naphthyridin-3-yl)pyridin-3-yl)-4-(trifluoromethyl)picolinamide] was tested, and the GI50 (Table A1) was < 20 nM.

`CNc1cc2ncc(-c3cc(NC(=O)c4ccnc(C(C)(C)F)c4)cnc3C)cc2cn1` [Compound 24, 2-(2-Fluoropropan-2-yl)-N-(6-methyl-5-(7-(methylamino)-1,6-naphthyridin-3-yl)pyridin-3-yl)isonicotinamide] was tested, and the GI50 (Table A1) was < 20 nM.

With `CNc1cc2ncc(-c3cc(NC(=O)c4cc(C(C)(C)C#N)ccn4)c(Cl)cc3C)cc2cn1` [Compound 50, N-(2-Chloro-4-methyl-5-(7-(methylamino)-1,6-naphthyridin-3-yl)phenyl)-4-(2-cyanopropan-2-yl)picolinamide] the GI50 (Table A1) was 100 to 500 nM.

With `CNc1cc2ncc(-c3cc(NC(=O)c4nn(C)c5c4CCCC5)cnc3C)cc2cn1` [Compound 233, 1-methyl-N-(6-methyl-5-(7-(methylamino)-1,6-naphthyridin-3-yl)pyridin-3-yl)-4,5,6,7-tetrahydro-1H-indazole-3-carboxamide] the GI50 (Table A2) was 20 to 100 nM.

For `CNc1cc2ncc(-c3cc(NC(=O)c4cc(C5(C#N)CC5)ccn4)cnc3C)cc2cn1` [Compound 32, 4-(1-Cyanocyclopropyl)-N-(6-methyl-5-(7-(methylamino)-1,6-naphthyridin-3-yl)pyridin-3-yl)picolinamide], the GI50 (Table A1) was < 20 nM.

`CNc1cc2ncc(-c3cc(NC(=O)c4cccc5c4NC(=O)C5(C)C)ccc3C)cc2cn1` [Compound 215, 3,3-dimethyl-N-(4-methyl-3-(7-(methylamino)-1,6-naphthyridin-3-yl)phenyl)-2-oxoindoline-7-carboxamide] was tested, and the GI50 (Table A2) was 20 to 100 nM.

`CNc1cc2ncc(-c3cc(NC(=O)c4cnc5n4C[C@H](C)CC5)cnc3C)cc2cn1` (single isomer, unassigned) [Compound 259] was tested, and the GI50 (Table A2) was 20 to 100 nM.

`CNc1cc2ncc(-c3cc(NC(=O)c4noc5c4C[C@@H](C)CC5)ccc3C)cc2cn1` (single isomer, unassigned) [Compound 236] was tested, and the GI50 (Table A2) was 20 to 100 nM.

In the case of `CNc1cc2ncc(-c3cc(NC(=O)c4cccc5c4CCC[C@@H]5O)cnc3C)cc2cn1` (single isomer, unassigned) [Compound 207], the GI50 (Table A2) is reported as ≥ 500 nM.

With `CNc1cc2ncc(-c3cc(C(=O)Nc4cccc(C(C)(C)C#N)c4)cnn3)cc2cn1` [Compound 196, N-(3-(2-cyanopropan-2-yl)phenyl)-6-(7-(methylamino)-1,6-naphthyridin-3-yl)pyridazine-4-carboxamide] the GI50 (Table A2) was ≥ 500 nM.

For `CNc1cc2ncc(-c3cc(NC(=O)c4cnc5n4C[C@@H](C)CC5)ccc3C)cc2cn1` (single isomer, unassigned) [Compound 231], the GI50 (Table A2) was 20 to 100 nM.

Work on `CNc1cc2ncc(-c3cc(NC(=O)c4cnc5n4C(C)CCC5)ccc3C)cc2cn1` (stereo not drawn) [Compound 205, 5-methyl-N-(4-methyl-3-(7-(methylamino)-1,6-naphthyridin-3-yl)phenyl)-5,6,7,8-tetrahydroimidazo[1,2-a]pyridine-3-carboxamide] yielded a GI50 (Table A2) of 100 to 500 nM.

Compound `CNc1cc2ncc(-c3cc(NC(=O)CN4CCC[C@H](C(F)(F)F)C4)cnc3C)cc2cn1` [Compound 62, (S)—N-(6-Methyl-5-(7-(methylamino)-1,6-naphthyridin-3-yl)pyridin-3-yl)-2-(3-(trifluoromethyl)piperidin-1-yl)acetamide] has a GI50 (Table A1) of 20 to 100 nM.

`CNc1cc2ncc(-c3cc(NC(=O)c4cnc5n4CC(C(F)F)CC5)cnc3C)cc2cn1` (stereo not drawn) [Compound 251, 6-(difluoromethyl)-N-(6-methyl-5-(7-(methylamino)-1,6-naphthyridin-3-yl)pyridin-3-yl)-5,6,7,8-tetrahydroimidazo[1,2-a]pyridine-3-carboxamide] was tested, and the GI50 (Table A2) was 100 to 500 nM.

In the case of `CNc1cc2ncc(-c3cc(NC(=O)c4cc(C5(C#N)CCC5)ccn4)ccc3C)cc2cn1` [Compound 15, 4-(1-Cyanocyclobutyl)-N-(4-methyl-3-(7-(methylamino)-1,6-naphthyridin-3-yl)phenyl)picolinamide], the GI50 (Table A1) is reported as 20 to 100 nM.

`CNc1cc2ncc(-c3cc(NC(=O)c4cccc(C(C)(F)F)c4)cnc3C)cc2cn1` [Compound 200, 3-(1,1-difluoroethyl)-N-(6-methyl-5-(7-(methylamino)-1,6-naphthyridin-3-yl)pyridin-3-yl)benzamide] was tested, and the GI50 (Table A2) was < 20 nM.

Compound `CNc1cc2ncc(-c3cc(NC(=O)c4noc5c4CCCCC5)cnc3C)cc2cn1` [Compound 245, N-(6-methyl-5-(7-(methylamino)-1,6-naphthyridin-3-yl)pyridin-3-yl)-5,6,7,8-tetrahydro-4H-cyclohepta[d]isoxazole-3-carboxamide] has a GI50 (Table A2) of 20 to 100 nM.

`CNc1cc2ncc(-c3cc(C(=O)Nc4cc(C(C)(C)C#N)ccn4)cnc3C)cc2cn1` [Compound 59, N-(4-(2-Cyanopropan-2-yl)pyridin-2-yl)-6-methyl-5-(7-(methylamino)-1,6-naphthyridin-3-yl)nicotinamide] was tested, and the GI50 (Table A1) was 20 to 100 nM.

In the case of `CNc1cc2ncc(-c3cc(NC(=O)c4cccc(C5(C#N)CC5)c4)cnc3C)cc2cn1` [Compound 191, 3-(1-cyanocyclopropyl)-N-(6-methyl-5-(7-(methylamino)-1,6-naphthyridin-3-yl)pyridin-3-yl)benzamide], the GI50 (Table A2) is reported as 20 to 100 nM.

`CNc1cc2ncc(-c3cc(NC(=O)c4cnc5n4CC(C)CC5)cnc3C)cc2cn1` (stereo not drawn) [Compound 225, 6-methyl-N-(6-methyl-5-(7-(methylamino)-1,6-naphthyridin-3-yl)pyridin-3-yl)-5,6,7,8-tetrahydroimidazo[1,2-a]pyridine-3-carboxamide] gave a GI50 (Table A2) of 20 to 100 nM.

In the case of `CNc1cc2ncc(-c3cc(NC(=N)c4cc(C(F)(F)F)ccn4)ccc3C)cc2cn1` [Compound 61, N-(4-Methyl-3-(7-(methylamino)-1,6-naphthyridin-3-yl)phenyl)-4-(trifluoromethyl)picolinimidamide], the GI50 (Table A1) is reported as 100 to 500 nM.

In the case of `CNc1cc2ncc(-c3cc(NC(=O)c4cc(C(F)F)c(F)cn4)cnc3C)cc2cn1` [Compound 66, 4-(Difluoromethyl)-5-fluoro-N-(6-methyl-5-(7-(methylamino)-1,6-naphthyridin-3-yl)pyridin-3-yl)picolinamide], the GI50 (Table A1) is reported as 20 to 100 nM.

For `CNc1cc2ncc(-c3cc(NC(=O)c4cccc5c4CCC5=O)cnc3C)cc2cn1` [Compound 212, N-(6-methyl-5-(7-(methylamino)-1,6-naphthyridin-3-yl)pyridin-3-yl)-1-oxo-2,3-dihydro-1H-indene-4-carboxamide], the GI50 (Table A2) was ≥ 500 nM.

In the case of `CCC(C)c1ccnc(C(=O)Nc2cnc(C)c(-c3cnc4cc(NC)ncc4c3)c2)c1` (stereo not drawn) [Compound 227, 4-(sec-butyl)-N-(6-methyl-5-(7-(methylamino)-1,6-naphthyridin-3-yl)pyridin-3-yl)picolinamide], the GI50 (Table A2) is reported as 20 to 100 nM.

`CCC(OC)c1ccnc(C(=O)Nc2cnc(C)c(-c3cnc4cc(NC)ncc4c3)c2)c1` (stereo not drawn) [Compound 260, 4-(1-methoxypropyl)-N-(6-methyl-5-(7-(methylamino)-1,6-naphthyridin-3-yl)pyridin-3-yl)picolinamide] was tested, and the GI50 (Table A2) was 20 to 100 nM.

In the case of `CNc1cc2ncc(-c3cc(NC(=O)c4ccc(OC(F)F)cn4)cnc3C)cc2cn1` [Compound 72, 5-(Difluoromethoxy)-N-(6-methyl-5-(7-(methylamino)-1,6-naphthyridin-3-yl)pyridin-3-yl)picolinamide], the GI50 (Table A1) is reported as ≥ 500 nM.

`CNc1cc2ncc(-c3cc(NC(=O)c4n[nH]c5c4CCCC5)cnc3C)cc2cn1` [Compound 229, N-(6-methyl-5-(7-(methylamino)-1,6-naphthyridin-3-yl)pyridin-3-yl)-4,5,6,7-tetrahydro-1H-indazole-3-carboxamide] showed a GI50 (Table A2) of 20 to 100 nM.

With `CNc1cc2ncc(-c3cc(NC(=O)c4cnc5n4CC(C(F)F)CC5)ccc3C)cc2cn1` (stereo not drawn) [Compound 238, 6-(difluoromethyl)-N-(4-methyl-3-(7-(methylamino)-1,6-naphthyridin-3-yl)phenyl)-5,6,7,8-tetrahydroimidazo[1,2-a]pyridine-3-carboxamide] the GI50 (Table A2) was 20 to 100 nM.

`Cc1ncc(NC(=O)c2cc(C(F)(F)F)ccn2)cc1-c1ccc2c3c(ncc2c1)NC(=O)C3` [Compound 274, N-(6-methyl-5-(2-oxo-2,3-dihydro-1H-pyrrolo[2,3-c]isoquinolin-7-yl)pyridin-3-yl)-4-(trifluoromethyl)picolinamide] was tested, and the GI50 (Table A2) was < 20 nM.

In the case of `CNc1ncc2cc(-c3cc(NC(=O)c4ccnc(C5(F)CC5)c4)ccc3C)cnc2c1C#N` [Compound 271, N-[3-[8-cyano-7-(methylamino)-1,6-naphthyridin-3-yl]-4-methyl-phenyl]-2-(1-fluorocyclopropyl)pyridine-4-carboxamide], the GI50 (Table A2) is reported as 20 to 100 nM.

`CNc1cc2ncc(-c3cc(NC(=O)c4n[nH]c5c4C[C@H]4C[C@@H]54)cnc3C)cc2cn1` [Compound 253, (4aR,5aR)—N-(6-methyl-5-(7-(methylamino)-1,6-naphthyridin-3-yl)pyridin-3-yl)-4,4a,5,5a-tetrahydro-1H-cyclopropa[4,5]cyclopenta[1,2-c]pyrazole-3-carboxamide] gave a GI50 (Table A2) of 20 to 100 nM.

Compound `CNc1cc2ncc(-c3cc(NC(=O)c4cc(C(C)(C)C#N)ccn4)nnc3C)cc2cn1` [Compound 77, 4-(2-cyanopropan-2-yl)-N-(6-methyl-5-(7-(methylamino)-1,6-naphthyridin-3-yl)pyridazin-3-yl)picolinamide] has a GI50 (Table A1) of 20 to 100 nM.
